In general, IC50 refers to the midpoint of a concentration-inhibition curve.

Assay [1] has as its target T1, human neutrophil cathepsin G (Homo sapiens, UniProt P08311).
T1 construct: human neutrophil cathepsin G (Athens Research and Technology); purchased Athens Research and Technology; host or cells: human neutrophils (from the enzyme's name)
T1 sequence (P08311 21-243 limits assumed): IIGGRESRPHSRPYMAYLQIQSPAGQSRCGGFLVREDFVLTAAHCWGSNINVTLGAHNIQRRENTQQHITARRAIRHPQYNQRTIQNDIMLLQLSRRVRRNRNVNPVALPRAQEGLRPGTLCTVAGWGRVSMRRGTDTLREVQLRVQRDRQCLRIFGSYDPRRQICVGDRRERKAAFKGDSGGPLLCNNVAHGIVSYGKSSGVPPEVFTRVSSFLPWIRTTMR
Description: Enzyme-catalyzed hydrolysis assay, cathepsin G (chromogenic substrate Suc-Ala-Ala-Pro-Phe-pNa). The assay is classed as biochemical. The settings on record: 70 nM enzyme, 5 mM substrate, pH 7.4, 37° C., 30 minutes; read-out: IC50 (μM) CatG. The method, then:
(§1) Enzyme-catalyzed hydrolysis rates were measured spectrophotometrically using human neutrophil cathepsin G (Athens Research and Technology) or human skin chymase (Cortex Biochem), a chromogenic substrate (Suc-Ala-Ala-Pro-Phe-pNa) (Bachem) in aqueous buffer (100 mM Hepes, 500 mM NaCl, pH 7.4 for catG; 450 mM Tris, 1800 mM NaCl, pH 8.0 for chymase), and a microplate reader (Molecular Devices). […] Percent inhibition was calculated by comparing the initial reaction slopes of the samples without inhibitor to those with inhibitor. IC50 values were determined using a four parameter fit logistics model. The term “NT” indicates a compound that was not tested.

The next assay concerns the target T2, human skin chymase (Homo sapiens, UniProt P23946).
T2 construct: human skin chymase (Cortex Biochem); purchased Cortex Biochem; host or cells: human skin (from the enzyme's name)
T2 sequence (P23946 22-247): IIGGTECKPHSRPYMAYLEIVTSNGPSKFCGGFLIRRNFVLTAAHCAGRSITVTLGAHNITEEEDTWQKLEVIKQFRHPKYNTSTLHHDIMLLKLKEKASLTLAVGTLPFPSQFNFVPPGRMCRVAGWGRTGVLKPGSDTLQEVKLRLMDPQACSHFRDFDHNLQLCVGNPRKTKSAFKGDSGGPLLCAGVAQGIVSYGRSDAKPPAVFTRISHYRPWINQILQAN
Description: Enzyme-catalyzed hydrolysis assay, chymase (chromogenic substrate Suc-Ala-Ala-Pro-Phe-pNa). The assay is classed as biochemical. The note with it: 10 nM enzyme, 0.7 mM substrate, pH 8.0, 37° C., 30 minutes. On the procedure: as §1

Molecules are shown by their SMILES.

Take `CN(C(=O)c1cc2ccccc2cc1C(=O)C(c1cccc2ccccc12)P(=O)(O)O)C1CCC(c2ccccc2)CC1` (centres unmarked) [Compound 1, [2-[3-[[methyl(4-phenylcyclohexyl)amino]carbonyl]-2-naphthalenyl]-1-(1-naphthalenyl)-2-oxoethyl]-phosphonic acid]: the half-inhibitory concentration (IC50) in assay [1] is 0.083 ± 0.014 µM; against human skin chymase, 0.0053 ± 0.0019 µM.

As for `CN(C(=O)c1cc2ccccc2cc1C(=O)C(c1cccc2ccccc12)P(=O)(O)O)C1CCN(C(=O)c2ccc3cc(Br)ccc3c2)CC1` (centres unmarked) [Compound 4], the IC50 stood at 0.09 ± 0.02 µM in assay [1] and 0.0039 ± 0.0001 µM on human skin chymase.

For `CN(C(=O)c1cc2ccccc2cc1C(=O)C(c1cccc2ccccc12)P(=O)(O)O)C1CCN(C(=O)/C=C/c2ccccc2)CC1` (centres unmarked) [Compound 6, [2-[3-[[methyl[1-[(2E)-1-oxo-3-phenyl-2-propenyl]-4-piperidinyl]amino]carbonyl]-2-naphthalenyl]-1-(1-naphthalenyl)-2-oxoethyl]-phosphonic acid], the IC50 was 0.067 ± 0.014 µM in assay [1] and 0.0035 ± 0.0015 µM on human skin chymase.

On to `O=C(c1cc2ccccc2cc1C(=O)N1CCC(c2ccccc2)CC1)C(c1cccc2ccccc12)P(=O)(O)O` (centres unmarked) [Compound 7, [1-(1-naphthalenyl)-2-oxo-2-[3-[(4-phenyl-1-piperidinyl)carbonyl]-2-naphthalenyl]ethyl]-phosphonic acid], for which the IC50 turned out to be 0.21 ± 0.05 µM in assay [1] and 0.008 ± 0.022 µM against human skin chymase.

For the compound `O=C(c1cc2ccccc2cc1C(=O)N1CCC2(CC1)C(=O)NCN2c1ccccc1)C(c1cccc2ccccc12)P(=O)(O)O` (centres unmarked) [Compound 8, [1-(1-naphthalenyl)-2-oxo-2-[3-[(4-oxo-1-phenyl-1,3,8-triazaspiro[4.5]dec-8-yl)carbonyl]-2-naphthalenyl]ethyl]-phosphonic acid], the half-maximal inhibitory concentration (IC50) in assay [1] was 0.13 ± 0.01 µM; against human skin chymase it was 0.0074 ± 0.0022 µM.

Take `Cc1ccc(/C=C/C(=O)N2CCC(N(C)C(=O)c3cc4ccccc4cc3C(=O)C(c3cccc4ccccc34)P(=O)(O)O)CC2)cc1` (centres unmarked) [Compound 9, [2-[3-[[methyl[1-[(2E)-3-(4-methylphenyl)-1-oxo-2-propenyl]-4-piperidinyl]amino]carbonyl]-2-naphthalenyl]-1-(1-naphthalenyl)-2-oxoethyl]-phosphonic acid]: the IC50 in assay [1] turned out to be 0.053 ± 0.015 µM; against human skin chymase, 0.011 ± 0.003 µM.

As to `CN(C(=O)c1cc2ccccc2cc1C(=O)C(c1cccc2ccccc12)P(=O)(O)O)C1CCN(C(=O)/C=C/c2ccc(C(F)(F)F)cc2)CC1` (centres unmarked) [Compound 10, [2[3-[[methyl[1-[(2E)-1-oxo-3-[4-(trifluoromethyl)-phenyl]-2-propenyl]-4-piperidinyl]amino]carbonyl]-2-naphthalenyl]-1-(1-naphthalenyl)-2-oxoethyl]-phosphonic acid], the IC50 in assay [1] is 0.053 ± 0.016 µM; at human skin chymase, 0.014 ± 0.006 µM.

As to `CN(C(=O)c1cc2ccccc2cc1C(=O)C(c1ccccc1)P(=O)(O)O)C1CCN(C(=O)c2ccc3ccccc3c2)CC1` (centres unmarked) [Compound 11, [2-[3-[[methyl[1-(2-naphthalenylcarbonyl)-4-piperidinyl]amino]carbonyl]-2-naphthalenyl]-2-oxo-1-phenylethyl]-phosphonic acid], the IC50 in assay [1] was 4.9 ± 2.8 µM; on human skin chymase it was 0.032 µM.

With `COc1ccc(C2CCN(C(=O)c3cc4ccccc4cc3C(=O)C(c3cccc4ccccc34)P(=O)(O)O)CC2)cc1` (centres unmarked) [Compound 12, [2-[3-[[4-(4-methoxyphenyl)-1-piperidinyl]carbonyl]-2-naphthalenyl]-1-(1-naphthalenyl)-2-oxoethyl]-phosphonic acid], the IC50 in assay [1] amounted to 0.179 ± 0.038 µM; against human skin chymase, 0.0073 ± 0.0017 µM.

Take `CN(C)c1ccc(C=CC(=O)N2CCC(N(C)C(=O)c3cc4ccccc4cc3C(=O)C(c3cccc4ccccc34)P(=O)(O)O)CC2)cc1` (centres unmarked) [Compound 13, [2-3-[[[1-[(2E)-3-[4-(dimethylamino)phenyl]-1-oxo-2-propenyl]-4-piperidinyl]methylamino]carbonyl]-2-naphthalenyl]-1-(1-naphthalenyl)-2-oxoethyl]-phosphonic acid]: the results for the half-maximal inhibitory concentration (IC50) (in assay [1]; on human skin chymase) were 0.064 ± 0.008 µM and 0.004 µM, respectively.

For `COc1cccc(C2CCN(C(=O)c3cc4ccccc4cc3C(=O)C(c3cccc4ccccc34)P(=O)(O)O)CC2)c1` (centres unmarked) [Compound 14, [2-[3-[[4-(3-methoxyphenyl)-1-piperidinyl]carbonyl]-2-naphthalenyl]-1-(1-naphthalenyl)-2-oxoethyl]-phosphonic acid], the IC50 worked out at 0.23 ± 0.03 µM in assay [1] and 0.01 ± 0.001 µM against human skin chymase.

With `CN(C(=O)c1cc2ccccc2cc1C(=O)C(c1cccc2ccccc12)P(=O)(O)O)C1CCN(C(=O)c2ccccc2)CC1` (centres unmarked) [Compound 15], on human skin chymase, the half-inhibitory concentration (IC50) came to 0.017 ± 0.005 µM.

As for `O=C(c1cc2ccccc2cc1C(=O)N1CCC(c2nc3ccccc3s2)CC1)C(c1cccc2ccccc12)P(=O)(O)O` (centres unmarked) [Compound 16, [2-[3-[[4-(2-benzothiazolyl)-1-piperidinyl]carbonyl]-2-naphthalenyl]-1-(1-naphthalenyl)-2-oxoethyl]-phosphonic acid], the IC50 in assay [1] came out at 0.19 ± 0.02 µM; against human skin chymase, 0.0085 ± 0.0023 µM.

Turning to `CN(C(=O)c1cc2ccccc2cc1C(=O)C(c1cccc2ccccc12)P(=O)(O)O)C1CCN(C(=O)CCc2ccc(C(F)(F)F)cc2)CC1` (centres unmarked) [Compound 18, [2-[3-[[methyl[1-[1-oxo-3-[4-(trifluoromethyl)phenyl]-propyl]-4-piperidinyl]amino]carbonyl]-2-naphthalenyl]-1-(1-naphthalenyl)-2-oxoethyl]-phosphonic acid], the values for the half-maximal inhibitory concentration (IC50) (in assay [1]; against human skin chymase) were 0.028 ± 0.006 µM and 0.001 µM, respectively.

Regarding `O=C(c1cc2ccccc2cc1C(=O)N1CCC(c2ccccc2)C1)C(c1cccc2ccccc12)P(=O)(O)O` (centres unmarked) [Compound 19, [1-(1-naphthalenyl)-2-oxo-2-[3-[(3-phenyl-1-pyrrolidinyl)carbonyl]-2-naphthalenyl]ethyl]-phosphonic acid], the half-maximal inhibitory concentration (IC50) in assay [1] was 0.238 ± 0.03 µM; at human skin chymase, 0.022 ± 0.062 µM.

Consider `CC(C)C(=O)N1CCC(N(C)C(=O)c2cc3ccccc3cc2C(=O)C(c2cccc3ccccc23)P(=O)(O)O)CC1` (centres unmarked) [Compound 20, [2-[3-[[methyl[1-(2-methyl-1-oxopropyl)-4-piperidinyl]amino]carbonyl]-2-naphthalenyl]-1-(1-naphthalenyl)-2-oxoethyl]-phosphonic acid], for which the IC50 in assay [1] came out at 0.09 ± 0.023 µM; against human skin chymase it was 0.004 ± 0.002 µM.

As to `COP(=O)(O)C(C(=O)c1cc2ccccc2cc1C(=O)N(C)C1CCN(C(=O)c2ccc3ccccc3c2)CC1)c1cccc2ccccc12` (centres unmarked) [Compound 23, [2[3-[[methyl[1-(2-naphthalenylcarbonyl)-4-piperidinyl]amino]carbonyl]-2-naphthalenyl]-1-(1-naphthalenyl)-2-oxoethyl]-phosphonic acid methyl ester], the figures for the half-maximal inhibitory concentration (IC50) (in assay [1]; at human skin chymase) were 0.67 µM and 0.416 µM, respectively.

In the case of `O=C(c1cc2ccccc2cc1C(=O)N1CCC(CCc2ccccc2)C1)C(c1cccc2ccccc12)P(=O)(O)O` (centres unmarked) [Compound 25, [1-(1-naphthalenyl)-2-oxo-2-[3-[[3-(2-phenylethyl)-1-pyrrolidinyl]carbonyl]-2-naphthalenyl]ethyl]-phosphonic acid], the results for the 50% inhibitory concentration (IC50) (in assay [1]; at human skin chymase) were 0.156 ± 0.028 µM and 0.0097 ± 0.0035 µM, respectively.

On to `CC1CCC(N(C)C(=O)c2cc3ccccc3cc2C(=O)C(c2cccc3ccccc23)P(=O)(O)O)CC1` (centres unmarked) [Compound 27, [2-[3-[[methyl(4-methylcyclohexyl)amino]carbonyl]-2-naphthalenyl]-1-(1-naphthalenyl)-2-oxoethyl]-phosphonic acid], for which the IC50 in assay [1] worked out at 0.07 ± 0.01 µM; against human skin chymase, 0.0051 ± 0.0022 µM.

Regarding `O=C(c1cc2ccccc2cc1C(=O)N1CCN(S(=O)(=O)c2ccc3ccccc3c2)CC1)C(c1cccc2ccccc12)P(=O)(O)O` (centres unmarked) [Compound 35], the IC50 in assay [1] came out at 0.56 ± 0.18 µM.

For `O=C(c1cc2ccccc2cc1C(=O)N1CCN(C(=O)Cc2ccc3ccccc3c2)CC1)C(c1cccc2ccccc12)P(=O)(O)O` (centres unmarked) [Compound 37], in assay [1], the half-maximal inhibitory concentration (IC50) was determined as 0.74 ± 0.29 µM.

As to `O=C(c1cc2ccccc2cc1C(=O)N1CCN(C(=O)c2ccc3ccccc3c2)CC1)C(c1cccc2ccccc12)P(=O)(O)O` (centres unmarked) [Compound 38], in assay [1], the IC50 is 0.78 ± 0.22 µM.

Regarding `COc1ccc(N2CCN(C(=O)c3cc4ccccc4cc3C(=O)C(c3cccc4ccccc34)P(=O)(O)O)CC2)cc1` (centres unmarked) [Compound 40], the half-maximal inhibitory concentration (IC50) in assay [1] was 0.17 ± 0.05 µM.

As to `O=C(NCc1ccc(S(=O)(=O)N2CCN(C(=O)c3cc4ccccc4cc3C(=O)C(c3cccc4ccccc34)P(=O)(O)O)CC2)s1)c1ccccc1` (centres unmarked) [Compound 41], the 50% inhibitory concentration (IC50) in assay [1] was found to be 0.31 µM.

As for `O=C(c1cc2ccccc2cc1C(=O)N1CCN(S(=O)(=O)c2c(Cl)nc3sccn23)CC1)C(c1cccc2ccccc12)P(=O)(O)O` (centres unmarked) [Compound 42], in assay [1], the IC50 turned out to be 0.14 ± 0.03 µM.

Consider `O=C(c1cc2ccccc2cc1C(=O)N1CCN(C(=O)Nc2ccc3ccccc3c2)CC1)C(c1cccc2ccccc12)P(=O)(O)O` (centres unmarked) [Compound 43], for which the concentration for half-maximal inhibition (IC50) in assay [1] came to 0.95 ± 0.21 µM.

For the origin of these results see patent publication US8703957B2 (Janssen Pharmaceutica NV, priority 2001, dated 2014).
